Values quoted from earlier work as cited in article PMC10318822, “Phase 1 dose-escalation study to evaluate the safety, tolerability, pharmacokinetics, and anti-tumor activity of FCN-159 in adults with neurofibromatosis type 1-related unresectable plexiform neurofibromas” (BMC Medicine, 2023).
Where two headings read alike, the source gives them in different places.

Tests used:
NF1-related PN [1] = system: NF1-related PN; parameters: method as in PMID 33507822; details: adult patients with NF1 and progressive PN, 2 mg/m^2 twice daily, n = 8/19; cited from earlier work
patients [2] = system: patients; parameters: method as in PMID 20215549; details: cited from earlier work
[3] = cited from earlier work; for RP2D: twice daily
NF1-related PN [4] = details: cited from earlier work
patients [5] = details: in vivo; cited from earlier work

Row | SMILES | Response rate (NF1-related PN [1]) | Blurred vision (patients [2]) | Patients with rash (patients [2]) | Visual disturbance (patients [2]) | Terminal half-life [3] | Terminal half-life, average [3] | RP2D [3] | Partial responses (PRs) (NF1-related PN [4]; interim results, phase II study in adults (NCT02407405), n = 16/23) | Response rate (NF1-related PN [4]; pediatric patients with NF1-related PN) | Partial responses (PRs) (NF1-related PN [4]; phase I study, children, 20–30 mg/m^2 twice daily, n = 17/24) | Partial responses (PRs) (NF1-related PN [4]; phase II trial, n = 34/50) | Patients reporting AEs of CTCAE grade 3 or above (patients [5]) | Patients with acneiform dermatitis (patients [5]) | Visual function AEs (patients [5]) | Dose proportionality of plasma concentration increase [3] | Time to Cmax ([3]; human, in vivo)
1 | O=C(NOC[C@H](O)CO)c1ccc(F)c(F)c1Nc1ccc(I)cc1F [mirdametinib] | 42% | 10.6% | 78.8% | 13.6% | 4.6 to 18.0 h | 7.8 h | 2 mg/m^2 | – | – | – | – | – | – | – | – | –
2 | Cn1cnc2c(F)c(Nc3ccc(Br)cc3Cl)c(C(=O)NOCCO)cc21 [selumetinib] | – | – | – | – | 6.0 to 6.9 h | – | 25 mg/m^2 | 69% | 40–70% | 71% | 68% | up to 71.4% | 62.5% | 17.9% | less than dose-proportional | 1.00 to 1.10 h
